From EP1541694A1, “Methods of identifying, selecting and/or characterizing compounds which modulate the activity of a Src family kinase” (Sirenade Pharmaceuticals AG, priority 2003, dated 2005)

Tests used:
Format in all cases: cell-based, human
[1] = test system: Src-TQ/YF expressing ZM170 cell lines; assay: Suppression of tet-induced phenotype changes, evaluated by eye/microscope, normal cell culture plates; details: adherent, PP1-Chr. and PP2 shown as combination 10µM + 5µM
Protocol: (§1) Phenotype changes -tet → +tet were evaluated in 24-well plates (Nunc; cat.no. 143982) under the following several different growth conditions to identify the strongest possible response (Δpt(-tet→+tet)max) 1. full (10% serum containing) growth medium a) without any growth factor supplement (-), b) with epidermal growth factor (EGF; 100ng/ml) (cat.no. 115, Research Diagnostics Inc. (RDI), Flanders, NJ, USA) or c) platelet derived growth factor type BB (PDGF-BB; 30ng/ml) (cat.no. 114b, RDI) or d) hepatocyte growth factor (HGF; 20ng/ml) (RDI, cat.no.300-010), or 2. serum-free medium a) - or b) +EGF or c) +PDGF or d) +HGF. In all cases, cells were first seeded into standard 24-well or 96-well plates (Nunc) in full growth medium. The cell number seeded per well was also varied to identify the most suitable cell densities producing Δpt(-tet→+tet)max. […]
(§2) To that end, the test compounds PP1-Chr., PP2 (cat.no. 529573, Calbiochem) and SU6656 (cat.no. 572635, Calbiochem) (see Fig.9p for chemical structures) were individually added to the cells together with tet, and the development of the phenotype changes in the presence of these compounds was monitored subsequently in direct comparison with cells that received no compound or only vehicle (0.2% DMSO) together with tet induction. […]

[2] = test system: Src-TQ/YF expressing cell line ZM170.21; assay: Suppression of tet-induced phenotype changes (cell scattering) in suspension, Ultra Low Attachment plates; details: ZM170.21 (Src-TQ/YF) in suspension, Ultralow Attachment Plates
Protocol: (§3) Cells were seeded into 24-well or 96-well "Ultra Low Attachment" plates (cat.no.: 3473, Costar Corning Corp., Acton, MA, USA). These plates are coated with a covalently bound hydrogel layer that prevents cellular attachment to the polystyrene surface of the wells. As the cells were not attached to these wells, a medium change was impossible here. However, the phenotypes were tested in full serum-containing medium in the absence or presence of EGF, PDGF-BB or HGF as detailed above. Tet-induction was also started the day after seeding.
(§4) Largely irrespective of the cell numbers per well, the cells of all cell lines were in suspension and formed one or few very condensed/compact, opaque, rod-, disc- or kidney-shaped aggregates with a smooth surface, in which individual cells could not be discerned. Phenotype changes became apparent ~24 h after tet induction in ZM77 and ZM170 cell lines only, and Δpt(-tet →+tet)max was reached after ~2 days. In these cell lines Src-YF or Src-TQ/YF expression, respectively, induces scattering of the cells. Many cells are floating in the medium individually or in small clusters and the remaining large aggregate(s) are irregular-shaped and rather loose than compact; individual cells can easily be discerned and thus, the surfaces of these aggregates are rough as with bunches of grapes (Fig.14a,b). This biological response was readily observed with or without any of the above growth factors, wherefore normal growth medium without any additional growth factor was subsequently used in this assay type.
(§5) To that end, the test compounds PP1-Chr., SU6656 and PP2 were individually added to the cells together with tet, and the development of the phenotype changes in the presence of these compounds was monitored subsequently in direct comparison with tet-induced cells that received no compound (Fig.14c-j). The compounds were also added to the cells without tet-induction of Src/ Src mutant expression as controls for non-specific/ toxicity effects. The experiments were performed with several ZM77 cell lines.

[3] = test system: Src-YF expressing ZM77 cell lines; assay: as above; details: Ultralow Attachment Plates
Protocol: as §3, §4, §5

[4] = test system: Src-YF expressing ZM77 cell lines; assay: Suppression of tet-induced phenotype changes, evaluated by eye/microscope, normal cell culture plates; details: adherent, serum-containing medium
Protocol: as §1, §2

CC(C)(C)n1nc(-c2ccc(Cl)cc2)c2c(N)ncnc21 [PP2]
suppression of tet-induced phenotype changes [1]: ineffective | suppression of tet-induced phenotype (cell scattering) [2]: largely ineffective | suppression of tet-induced phenotype changes (cell scattering) [3]: partially suppressed | suppression of tet-induced phenotype changes [4]: partially suppressed
